We go through five compounds from publication PMC8584173, “The Cytotoxic Effect of Copper (II) Complexes with Halogenated 1,3-Disubstituted Arylthioureas on Cancer and Bacterial Cells” (International Journal of Molecular Sciences, 2021).

In general, MIC refers to the smallest concentration in the dilution series that meets the test's criterion for growth inhibition. A lower MIC goes with greater potency. The IC50 is the concentration needed to halve the response being measured. A low value points to greater potency in that assay.

Data set [1] concerns S. epidermidis ATCC 12228. Put plainly: MIC, twofold serial microdilution. The data set is classed as cell-based, Staphylococcus epidermidis. The following applies: S. epidermidis ATCC 12228, 18 h, 35 °C. Here is the method: (§1) The antimicrobial activity of the compounds was tested on Gram-positive bacteria (Staphylococcus aureus NCTC 4163, Staphylococcus aureus ATCC 25923, Staphylococcus aureus ATCC 6538, Staphylococcus aureus ATCC 29213, Staphylococcus epidermidis ATCC 12228, Staphylococcus epidermidis ATCC 35984), Gram-negative rods (Escherichia coli ATCC 10538, Escherichia coli ATCC 25922, Pseudomonas aeruginosa ATCC 15442, Pseudomonas aeruginosa ATCC 27863) and yeasts (Candida albicans ATCC 10231, Candida albicans ATCC 90028, Candida parapsilosis ATCC 22019). Hospital methicillin-resistant strains of Staphylococcus aureus and Staphylococcus epidermidis were obtained from the collection of the Department of Pharmaceutical Microbiology, Medical University of Warsaw, Poland.
(§2) Antifungal activities were assessed using Mueller–Hinton agar + 2% glucose and 0.5 µg/mL methylene blue dye medium. Sterile filter paper discs (9 mm diameter, Whatman Number 3 chromatography paper) were dripped with tested compound solutions (in dimethylsulfoxide, DMSO) to load 400 μg of a given compound per disc. Dry discs were placed on the surface of appropriate agar medium. The results (diameter of the growth inhibition zone) were read after 18 h of incubation at 35 °C. Minimal inhibitory concentration (MIC) was tested by the twofold serial microdilution method (in 96-well microtiter plates) using Mueller–Hinton broth medium (Beckton Dickinson) for bacteria or RPMI-1640 medium for Candida species, according to CLSI guidelines. The stock solution of tested agent was prepared in DMSO and diluted in sterile water. […] The final inoculum of all studied microorganisms was 10^5 CFU/ mL^−1 (colony forming units per ml). Minimal inhibitory concentrations (the lowest concentration of a tested agent that prevents visible growth of a microorganism) were read after 18 h (bacteria) or 24 h (yeasts) of incubation at 35 °C.
(In broth dilution the organism is exposed to a series of concentrations in liquid medium.)

The test system of data set [2] is S. epidermidis ATCC 35984. The data set can be described thus: MIC, twofold serial microdilution. The data set is classed as cell-based, Staphylococcus epidermidis. As to conditions: S. epidermidis ATCC 35984, 18 h, 35 °C. Here is the method:
as §1, §2

The test system of data set [3] is SW620 (human metastatic colon cancer). The data set can be described thus: MTT cytotoxicity assay, SW620. The class given is cell-based. The following applies: SW620, 72 h. Here is the method: (§3) The human primary (SW480), metastatic (SW620) colon cancer, metastatic prostate cancer (PC3) and human immortal keratinocyte (HaCaT) cell lines were purchased from the American Type Culture Collection (ATCC, Rockville, USA). The cells were cultured in medium according to protocols (MEM for SW480 and SW620, RPMI 1640 for PC3 and DMEM for HaCaT cells) supplemented with 10% fetal bovine serum (FBS), penicillin (100 U/mL) and streptomycin (100 μg/mL) and cultured in 37 °C/ 5% CO2 humidified incubator. The cells were cultured until appropriate confluence was achieved (80–90%). Next, they were harvested by treatment with 0.25% trypsin (Gibco Life Technologies, USA) and used for studies.
(§4) Cells without studied compounds in medium were used as a control.
(§5) The cell viability was assessed by determination of MTT salt (3-(4,5-dimethylthiazol-2-yl)-2,5-diphenyltetrazolium bromide) conversion by mitochondrial dehydrogenase. MTT assay was performed as previously described. Experiments were repeated three times. Cell viability was presented as a percentage of MTT reduction in the treated cells versus the control cells. Number of viable cells cultured without studied compounds was assumed to be 100%. Decreased relative MTT level means decreased cell viability.
(In general: Formazan colour is commonly taken as a measure of viable cells.)

Data set [4] relates to C. parapsilosis ATCC 22019. The data set can be described thus: MIC, twofold serial microdilution. The class given is cell-based, Candida parapsilosis. As to conditions: C. parapsilosis ATCC 22019, 24 h, 35 °C. As for the experimental part: as §1, §2
Data set [5] relates to HaCaT (human immortal keratinocyte cell line). Put plainly: MTT cytotoxicity assay, HaCaT. The data set is classed as cell-based. As to conditions: HaCaT normal cells, 72 h. Here is the method:
as §3, §4
as §5, with “viability. Thiourea complexes with the highest cytotoxic potential assessed by MTT determination (with the lowest IC50) were chosen for subsequent assessments of cytotoxicity mechanisms.” for “viability.”

Data set [6] deals with C. albicans ATCC 90028. Put plainly: MIC, twofold serial microdilution. The class given is cell-based, Candida albicans. The following applies: C. albicans ATCC 90028, 24 h, 35 °C. As for the experimental part:
as §1, §2

In data set [7] the test system is C. albicans ATCC 10231. The data set can be described thus: MIC, twofold serial microdilution. The class given is cell-based, Candida albicans. As to conditions: C. albicans ATCC 10231, 24 h, 35 °C. Here is the method: as §1, §2
For data set [8], the system named is S. aureus ATCC 25923. The data set can be described thus: MIC, twofold serial microdilution. The following applies: S. aureus ATCC 25923, 18 h, 35 °C. The data set is classed as cell-based, Staphylococcus aureus. As for the experimental part:
as §1, §2

Data set [9] concerns S. aureus ATCC 6538. Put plainly: MIC, twofold serial microdilution. The class given is cell-based, Staphylococcus aureus. The following applies: S. aureus ATCC 6538, 18 h, 35 °C. Here is the method:
as §1, §2

Data set [10] concerns S. aureus NCTC 4163. The data set can be described thus: MIC, twofold serial microdilution. The class given is cell-based, Staphylococcus aureus. As to conditions: S. aureus NCTC 4163, 18 h, 35 °C. Here is the method: as §1, §2
The test system of data set [11] is S. aureus ATCC 29213. Put plainly: MIC, twofold serial microdilution. The data set is classed as cell-based, Staphylococcus aureus. As to conditions: S. aureus ATCC 29213, 18 h, 35 °C. As for the experimental part: as §1, §2
Data set [12] deals with Bacillus subtilis H17 (rec+). The data set can be described thus: Bacillus subtilis rec-assay, H17. The data set is classed as cell-based. As to conditions: B. subtilis H17; 256 µg per disc (NOQ 2 µg per disc). As for the experimental part:
DNA-damaging activity of compounds was tested by rec-assay using two genetically modified Bacillus subtilis strains: M45 (rec^−) and H17 (rec^+). Tested compounds were dissolved in DMSO, and 10 µL of each solution was dripped onto sterile cotton discs (Rotilabo) to load 256 µg of a given compound per 9 mm disc. Discs were placed on the surface nutrient agar plates (Difco), inoculated with 100 µL of bacterial overnight culture and incubated […] at 35 °C. After incubation, the growth inhibition zones were measured. […] Results of the genotoxicity test were estimated after 18 h of incubation at 35 °C by comparing the diameter of the inhibition zone on the B. subtilis M45 (rec^−) strain with that on the B. subtilis H17 (rec^+) strain.

Data set [13] has as its system PC3 (human metastatic prostate cancer). The data set can be described thus: MTT cytotoxicity assay, PC3. The class given is cell-based. The following applies: for IC50: PC3, 72 h, MTT; for fold more active than cisplatin: PC3 cell lines. As for the experimental part:
as §3, §4
as §5, with “viability. Thiourea complexes with the highest cytotoxic potential assessed by MTT determination (with the lowest IC50) were chosen for subsequent assessments of cytotoxicity mechanisms.” for “viability.”

For data set [14], the system named is E. coli ATCC 25922. The data set can be described thus: MIC, twofold serial microdilution. The data set is classed as cell-based, Escherichia coli. The following applies: E. coli ATCC 25922, 18 h, 35 °C. Here is the method:
as §1, §2

The subject of data set [15] is E. coli NCTC 10538. Put plainly: MIC, twofold serial microdilution. The class given is cell-based, Escherichia coli. The following applies: E. coli NCTC 10538, 18 h, 35 °C. As for the experimental part: as §1, §2

As for `O=[N+]([O-])c1cc([N+]2=C(Nc3cccc(Br)c3)[S][Cu-2]23[S]C(Nc2cccc(Br)c2)=[N+]3c2ccc(Cl)c([N+](=O)[O-])c2)ccc1Cl` [Compound 2, Copper (II) complex with 1-(3-bromophenyl)-3-(4-chloro-3-nitrophenyl)thiourea], the MIC in data set [1] came out at 16 µg/mL; in data set [2], 16 µg/mL; in [4], 64 µg/mL; in data set [6], 64 µg/mL; in [7], 64 µg/mL; in data set [8], 16 µg/mL. Also, the MIC in data set [9] was determined as 16 µg/mL; in [10], 16 µg/mL; in data set [11], 16 µg/mL; in data set [14] it was 128 µg/mL; in data set [15], 128 µg/mL. Moreover, the IC50 in data set [3] is 22.3 ± 1.8 µM; in [5], 167 ± 2.3 µM; in data set [13], 19.2 ± 2.2 µM. The same compound had an inhibition zone diameter in data set [12] of 17 mm.
As to `O=[N+]([O-])c1cc([N+]2=C(Nc3ccc(I)cc3)[S][Cu-2]23[S]C(Nc2ccc(I)cc2)=[N+]3c2ccc(Cl)c([N+](=O)[O-])c2)ccc1Cl` [Compound 8, Copper (II) complex with 1-(4-iodophenyl)-3-(4-chloro-3-nitrophenyl)thiourea], the MIC was determined as 8 µg/mL in data set [1]; 4 µg/mL in data set [2]; 64 µg/mL in data set [4]; 128 µg/mL in data set [6]; 64 µg/mL in [7]; 4 µg/mL in [8]. In addition, the MIC was found to be 4 µg/mL in [9]; 4 µg/mL in data set [10]; 4 µg/mL in data set [11]; 128 µg/mL in data set [14]; 128 µg/mL in [15]. For the same compound, the IC50 came out at 17.8 ± 1.3 µM in data set [3], 103 ± 3.4 µM in data set [5] and 4.3 ± 0.5 µM in data set [13]. The compound further showed an inhibition zone diameter in data set [12] of 14 mm. Further, in data set [13], the “fold more active than cisplatin” value is given as 1.2–3.1 fold.
In the case of `O=[N+]([O-])c1cc([N+]2=C(Nc3ccccc3F)[S][Cu-2]23[S]C(Nc2ccccc2F)=[N+]3c2ccc(Cl)c([N+](=O)[O-])c2)ccc1Cl` [Compound 7, Copper (II) complex with 1-(2-fluorophenyl)-3-(4-chloro-3-nitrophenyl)thiourea], the MIC in [1] was found to be 32 µg/mL; in data set [2] it was 32 µg/mL; in data set [4] it was 128 µg/mL; in data set [6], 128 µg/mL; in data set [7], 128 µg/mL; in data set [8], 32 µg/mL. In addition, the MIC in [9] worked out at 32 µg/mL; in data set [10] it was 32 µg/mL; in data set [11], 32 µg/mL; in data set [14], 256 µg/mL; in [15] it was 128 µg/mL. For the same compound, the IC50 in data set [3] was found to be 9.1 ± 0.8 µM; in data set [5] it was 138 ± 4.4 µM; in data set [13], 10.8 ± 1.3 µM. Moreover, the inhibition zone diameter in data set [12] is 15 mm. The “fold more active than cisplatin” value in data set [13] was 1.2–3.1 fold.
In the case of `O=[N+]([O-])c1cc([N+]2=C(Nc3ccc(F)c(Cl)c3)[S][Cu-2]23[S]C(Nc2ccc(F)c(Cl)c2)=[N+]3c2ccc(Cl)c([N+](=O)[O-])c2)ccc1Cl` [Compound 4, Copper (II) complex with 1-(3-chloro-4-fluorophenyl)-3-(4-chloro-3-nitrophenyl)thiourea], the MIC in data set [1] turned out to be 4 µg/mL; in data set [2], 4 µg/mL; in data set [4], 64 µg/mL; in [6], 128 µg/mL; in [7], 128 µg/mL; in data set [8], 4 µg/mL. Besides, the MIC in [9] is 4 µg/mL; in data set [10], 4 µg/mL; in data set [11], 4 µg/mL; in [14], 128 µg/mL; in data set [15], 128 µg/mL. The results for the IC50 in data set [3], in data set [5] and in data set [13] were 21.6 ± 2.9 µM, 121 ± 5.2 µM and 23.2 ± 1.6 µM, respectively. For the same compound, in data set [12], the inhibition zone diameter was 16 mm.
Take `O=[N+]([O-])c1cc(NC2=[N+](c3ccc(Cl)c([N+](=O)[O-])c3)[Cu-2]3([S]2)[S]C(Nc2ccc(Cl)c([N+](=O)[O-])c2)=[N+]3c2ccc(Cl)c([N+](=O)[O-])c2)ccc1Cl` [Compound 6, Copper (II) complex with 1,3-bis(4-chloro-3-nitrophenyl)thiourea]: the MIC in [1] came to 8 µg/mL; in data set [2] it was 8 µg/mL; in [4], 64 µg/mL; in data set [6], 64 µg/mL; in [7] it was 64 µg/mL; in data set [8], 8 µg/mL. Besides, the minimum inhibitory concentration (MIC) in [9] turned out to be 8 µg/mL; in data set [10] it was 8 µg/mL; in [11], 8 µg/mL; in [14], 128 µg/mL; in data set [15], 128 µg/mL. Further, the IC50 in data set [3] amounted to 21.5 ± 1.4 µM; in data set [5], 123 ± 2.1 µM; in data set [13], 20.3 ± 3.1 µM. The same compound came in with an inhibition zone diameter in [12] of 16 mm.
